Reference: PubChem BioAssay AID256 (DTP/NCI, 2004)
Several values for one entry are separate records, joined by “and”; a condition that tells them apart may be missing. Equal values may be shown once. Toxic doses and inconclusive results are not listed.

Test system: CD2F1 mice, L1210 leukemia ip, survival T/C
Experiment: NCI In Vivo Anticancer Drug Screen. Data for tumor model L1210 Leukemia (intraperitoneal) in CD2F1 (CDF1) mice
Conditions: higher = longer survival
Summary of the method: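 Each value reflects a quotient of treated over vehicle control outcomes in mice with a transplanted tumor.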

[1] = endpoint: mean survival time, dose: 50.0 mg/kg/injection, schedule: Q01DX009 (ip), vehicle: saline with Tween-80
[2] = endpoint: mean survival time, dose: 50.0 mg/kg/injection, schedule: Q04DX003 (ip), vehicle: saline with Tween-80
[3] = endpoint: mean survival time, dose: 100.0 mg/kg/injection, schedule: Q01DX009 (ip), vehicle: saline with Tween-80
[4] = endpoint: mean survival time, dose: 100.0 mg/kg/injection, schedule: Q04DX003 (ip), vehicle: saline with Tween-80
[5] = endpoint: mean survival time, dose: 200.0 mg/kg/injection, schedule: Q01DX009 (ip), vehicle: saline with Tween-80
[6] = endpoint: mean survival time, dose: 200.0 mg/kg/injection, schedule: Q04DX003 (ip), vehicle: saline with Tween-80
[7] = endpoint: mean survival time, dose: 6.25 mg/kg/injection, schedule: Q01DX009 (ip), vehicle: saline with Tween-80
[8] = endpoint: mean survival time, dose: 25.0 mg/kg/injection, schedule: Q04DX003 (ip), vehicle: saline with Tween-80
[9] = endpoint: mean survival time, dose: 100.0 mg/kg/injection, schedule: Q04DX002 (ip), vehicle: saline with Tween-80
[10] = endpoint: mean survival time, dose: 200.0 mg/kg/injection, schedule: Q04DX002 (ip), vehicle: saline with Tween-80
[11] = endpoint: mean survival time, dose: 400.0 mg/kg/injection, schedule: Q04DX002 (ip), vehicle: saline with Tween-80
[12] = endpoint: mean survival time, dose: 400.0 mg/kg/injection, schedule: Q04DX003 (ip), vehicle: saline with Tween-80

`CC(=O)NC(Cc1cc(I)c(OC(C)=O)c(I)c1)C(=O)O` (configuration not stated) was tested, and the T/C [1] was 93 % of control, the T/C [2] was 101 % of control and the T/C [3] was 93 % of control. For the same compound, the T/C [4] was 95 % of control, the T/C [5] was 93 % of control and the T/C [6] was 97 % of control.
For `COc1ccc2c(c1)c(C#N)cc[n+]2C`, the T/C [7] was 100 % of control, the T/C (endpoint: mean survival time, dose: 12.5 mg/kg/injection, schedule: Q01DX009 (ip), vehicle: saline with Tween-80) was 110 % of control and the T/C (endpoint: mean survival time, dose: 12.5 mg/kg/injection, schedule: Q04DX003 (ip), vehicle: saline with Tween-80) was 100 % of control. The T/C [8] was 91 % of control.
In the case of `NC(=O)NNC(=O)C(Cl)(Cl)Cl`, the T/C (endpoint: mean survival time, dose: 100.0 mg/kg/injection, schedule: Q04DX002 (ip), vehicle: saline) is reported as 103 % of control.
`CC(CSc1ccccc1)NCCO` (configuration not stated) was tested, and the T/C (endpoint: mean survival time, dose: 25.0 mg/kg/injection, schedule: Q04DX003 (ip), vehicle: saline) was 95 % of control, the T/C (endpoint: mean survival time, dose: 50.0 mg/kg/injection, schedule: Q04DX003 (ip), vehicle: saline) was 94 % of control and the T/C (endpoint: mean survival time, dose: 100.0 mg/kg/injection, schedule: Q04DX003 (ip), vehicle: saline) was 100 % of control.
For `O=C1C(Cl)(Cl)C(=O)C(Cl)(Cl)C(=O)C1(Cl)Cl`, the T/C (endpoint: mean survival time, dose: 25.0 mg/kg/injection, schedule: Q04DX002 (ip), vehicle: saline with Tween-80) was 97 % of control and the T/C (endpoint: mean survival time, dose: 50.0 mg/kg/injection, schedule: Q04DX002 (ip), vehicle: saline with Tween-80) was 94 % of control.
With `NC(=O)c1cn(C2OC(CO)CC2O)c2ncnc(N)c12` (configuration not stated) the T/C (endpoint: mean survival time, dose: 0.13 mg/kg/injection, schedule: Q01DX009 (ip), vehicle: water) was 90 % of control, the T/C (endpoint: mean survival time, dose: 0.25 mg/kg/injection, schedule: Q01DX009 (ip), vehicle: water) was 98 % of control and the T/C (endpoint: mean survival time, dose: 0.5 mg/kg/injection, schedule: Q01DX009 (ip), vehicle: water) was 96 % of control. The T/C (endpoint: mean survival time, dose: 1.0 mg/kg/injection, schedule: Q01DX009 (ip), vehicle: water) was 102 % of control, the T/C (endpoint: mean survival time, dose: 2.0 mg/kg/injection, schedule: Q01DX009 (ip), vehicle: water) was 113 % of control and the T/C (endpoint: mean survival time, dose: 8.0 mg/kg/injection, schedule: Q01DX009 (ip), vehicle: water) was 110 % of control. The T/C (endpoint: mean survival time, dose: 32.0 mg/kg/injection, schedule: Q01DX009 (ip), vehicle: water) was 122 % of control.
In the case of `O=C(NCC1CCCCO1)Nc1ccc(Cl)cc1` (configuration not stated), the T/C [9] is reported as 110 % of control, the T/C [10] is reported as 102 % of control and the T/C [11] is reported as 94 % of control.
`Oc1c(Br)cc(Br)cc1C=Nc1ccc(Br)cc1` was tested, and the T/C [4] was 110 % of control, the T/C [6] was 97 % of control and the T/C [12] was 95 % of control.
With `O=C(Nc1ccc([N+](=O)[O-])cc1)OCC#CC#CCOC(=O)Nc1ccc([N+](=O)[O-])cc1` the T/C (endpoint: mean survival time, dose: 100.0 mg/kg/injection, schedule: Q04DX003 (ip), vehicle: Klucel (hydroxypropylcellulose) (HPC)) was 94 % of control and the T/C (endpoint: mean survival time, dose: 200.0 mg/kg/injection, schedule: Q04DX003 (ip), vehicle: Klucel (hydroxypropylcellulose) (HPC)) was 94 % of control.
With `O=C1C(=O)c2cccnc2C(NC2CC3CCC2C3)=C1Cl` (configuration not stated) the T/C (endpoint: mean survival time, dose: 75.0 mg/kg/injection, schedule: Q04DX003 (ip), vehicle: saline) was 95 % of control, the T/C (endpoint: mean survival time, dose: 150.0 mg/kg/injection, schedule: Q04DX003 (ip), vehicle: saline) was 98 % of control and the T/C (endpoint: mean survival time, dose: 300.0 mg/kg/injection, schedule: Q04DX003 (ip), vehicle: saline) was 97 % of control.
In the case of `Nc1ccccc1-c1ccc([N+](=O)[O-])cc1`, the T/C [4] is reported as 94 % of control, the T/C [6] is reported as 92 % of control and the T/C [12] is reported as 101 % of control.
In the case of `Fc1cc(F)c(F)c(-c2c(F)c(F)cc(F)c2F)c1F`, the T/C [1] is reported as 103 % of control, the T/C [3] is reported as 103 % of control and the T/C [5] is reported as 96 % of control.
For `CSc1nn(C2OC(COC(=O)c3ccccc3)C(OC(=O)c3ccccc3)C2OC(=O)c2ccccc2)c(=O)[nH]c1=S` (configuration not stated), the T/C (endpoint: mean survival time, dose: 12.5 mg/kg/injection, schedule: Q01DX005 (ip), vehicle: distilled water + Tween-80) was 96 % of control, the T/C (endpoint: mean survival time, dose: 25.0 mg/kg/injection, schedule: Q01DX005 (ip), vehicle: distilled water + Tween-80) was 98 % of control and the T/C (endpoint: mean survival time, dose: 50.0 mg/kg/injection, schedule: Q01DX005 (ip), vehicle: distilled water + Tween-80) was 95 % of control. The T/C (endpoint: mean survival time, dose: 100.0 mg/kg/injection, schedule: Q01DX005 (ip), vehicle: distilled water + Tween-80) was 93 % of control and the T/C (endpoint: mean survival time, dose: 200.0 mg/kg/injection, schedule: Q01DX005 (ip), vehicle: distilled water + Tween-80) was 91 % of control.
For `CN(C)c1ccc(/C=C2\C=Nc3ccccc32)cc1`, the T/C [8] was 87 % of control and the T/C [4] was 87 % of control.
`COB(C1CCCCC1)C1CCCCC1` was tested, and the T/C (endpoint: mean survival time, dose: 100.0 mg/kg/injection, schedule: Q01DX009 (ip), vehicle: other) was 91 % of control and the T/C (endpoint: mean survival time, dose: 200.0 mg/kg/injection, schedule: Q01DX009 (ip), vehicle: other) was 88 % of control.
With `CC(=O)N(C(C)=O)c1ncc2ccccc2c1-c1ccc(N)cc1` the T/C [8] was 92 % of control, the T/C [2] was 89 % of control and the T/C [4] was 94 % of control.
For `CCOP(=O)(OCC)ON1C(=O)c2cccc3cccc(c23)C1=O`, the T/C (endpoint: mean survival time, dose: 3.12 mg/kg/injection, schedule: Q01DX009 (ip), vehicle: Klucel (hydroxypropylcellulose) (HPC)) was 100 % of control, the T/C (endpoint: mean survival time, dose: 6.25 mg/kg/injection, schedule: Q01DX009 (ip), vehicle: Klucel (hydroxypropylcellulose) (HPC)) was 95 % of control and the T/C (endpoint: mean survival time, dose: 12.5 mg/kg/injection, schedule: Q01DX009 (ip), vehicle: Klucel (hydroxypropylcellulose) (HPC)) was 95 % of control. For the same compound, the T/C (endpoint: mean survival time, dose: 25.0 mg/kg/injection, schedule: Q01DX009 (ip), vehicle: Klucel (hydroxypropylcellulose) (HPC)) was 93 % of control.
For `COc1ccc(NC(=O)Nc2ccc(OC)cc2Cl)cc1`, the T/C [9] was 90 % of control, the T/C [10] was 86 % of control and the T/C [11] was 90 % of control.
In the case of `CC[N+](C)(CC)Cc1cc(C(C)=O)c(C)o1`, the T/C (endpoint: mean survival time, dose: 6.25 mg/kg/injection, schedule: Q04DX002 (ip), vehicle: saline) is reported as 98 % of control, the T/C (endpoint: mean survival time, dose: 12.5 mg/kg/injection, schedule: Q04DX002 (ip), vehicle: saline) is reported as 98 % of control and the T/C (endpoint: mean survival time, dose: 25.0 mg/kg/injection, schedule: Q04DX002 (ip), vehicle: saline) is reported as 102 % of control. For the same compound, the T/C (endpoint: mean survival time, dose: 50.0 mg/kg/injection, schedule: Q04DX002 (ip), vehicle: saline) was 91 % of control and the T/C (endpoint: median survival time, dose: 50.0 mg/kg/injection, schedule: Q04DX002 (ip), vehicle: saline) was 100 % of control.
`CCC1(O)C(=O)OCc2c1cc1n(c2=O)Cc2cc3cc(O)c(O)cc3nc2-1` (configuration not stated) was tested, and the T/C (endpoint: median survival time, dose: 10.0 mg/kg/injection, schedule: Q04DX002 (ip), vehicle: saline with Tween-80) was 153 % of control, the T/C (endpoint: median survival time, dose: 40.0 mg/kg/injection, schedule: Q04DX002 (ip), vehicle: saline with Tween-80) was 157 % of control and the T/C (endpoint: median survival time, dose: 80.0 mg/kg/injection, schedule: Q04DX002 (ip), vehicle: saline with Tween-80) was 173 % of control.
In the case of `CCCCSc1ncn(C)c1[N+](=O)[O-]`, the T/C (endpoint: mean survival time, dose: 50.0 mg/kg/injection, schedule: Q01DX001 (ip), vehicle: saline with Tween-80) is reported as 101 % of control, the T/C (endpoint: mean survival time, dose: 100.0 mg/kg/injection, schedule: Q01DX001 (ip), vehicle: saline with Tween-80) is reported as 103 % of control and the T/C (endpoint: mean survival time, dose: 200.0 mg/kg/injection, schedule: Q01DX001 (ip), vehicle: saline with Tween-80) is reported as 101 % of control.
`O=C(O)CC(NC(=O)CP(=O)(O)O)C(=O)O` (configuration not stated) was tested, and the T/C (endpoint: mean survival time, dose: 86.4 mg/kg/injection, schedule: Q01DX009 (ip), vehicle: saline) was 98 % of control, the T/C (endpoint: mean survival time, dose: 200.0 mg/kg/injection, schedule: Q01DX009 (ip), vehicle: saline) was 112 % of control and the T/C (endpoint: mean survival time, dose: 225.0 mg/kg/injection, schedule: Q01DX009 (ip), vehicle: saline) was 116 % of control. For the same compound, the T/C (endpoint: mean survival time, dose: 240.0 mg/kg/injection, schedule: Q01DX009 (ip), vehicle: saline) was 105 % of control and the T/C (endpoint: mean survival time, dose: 250.0 mg/kg/injection, schedule: Q01DX009 (ip), vehicle: saline) was 115 % of control.
`Cc1cc(C)c(N2C(=O)C=CC2=O)c(C)c1` was tested, and the T/C [7] was 94 % of control.
For `CC(C)CC(NC(=O)CF)C(=O)O` (configuration not stated), the T/C (endpoint: mean survival time, dose: 0.31 mg/kg/injection, schedule: Q01DX009 (ip), vehicle: saline) was 98 % of control and 108 % of control, the T/C (endpoint: mean survival time, dose: 0.62 mg/kg/injection, schedule: Q01DX009 (ip), vehicle: saline) was 98 % of control and the T/C (endpoint: mean survival time, dose: 0.63 mg/kg/injection, schedule: Q01DX009 (ip), vehicle: saline) was 111 % of control. For the same compound, the T/C (endpoint: mean survival time, dose: 1.25 mg/kg/injection, schedule: Q01DX009 (ip), vehicle: saline) was 98 % of control and 106 % of control, the T/C (endpoint: mean survival time, dose: 2.5 mg/kg/injection, schedule: Q01DX009 (ip), vehicle: saline) was 98 % of control and 100 % of control and the T/C (endpoint: mean survival time, dose: 5.0 mg/kg/injection, schedule: Q01DX009 (ip), vehicle: saline) was 98 % of control and 110 % of control.
